Literature values, collected in publication PMC10544575, “Inhibitory mechanism of vortioxetine on CYP450 enzymes in human and rat liver microsomes” (Frontiers in Pharmacology, 2023).

What was measured:
Conditions in all cases: in vitro; ref Wójcikowski et al., 2020; cited from earlier work
[1] = system: CYP1A2; parameters: method as in Wójcikowski et al., 2020
[2] = molecular target: CYP2D6 (Homo sapiens, UniProt P10635); parameters: 0.20 mg/mL HLMs or 0.20 mg/mL RLMs; from tissue; host or cells: human liver microsomes; method as in Wójcikowski et al., 2020
[3] = molecular target: CYP3A4 (Homo sapiens, UniProt P08684); parameters: 0.20 mg/mL HLMs or 0.20 mg/mL RLMs; from tissue; host or cells: human liver microsomes; method as in Wójcikowski et al., 2020
CYP3A4, sequence (P08684 whole entry): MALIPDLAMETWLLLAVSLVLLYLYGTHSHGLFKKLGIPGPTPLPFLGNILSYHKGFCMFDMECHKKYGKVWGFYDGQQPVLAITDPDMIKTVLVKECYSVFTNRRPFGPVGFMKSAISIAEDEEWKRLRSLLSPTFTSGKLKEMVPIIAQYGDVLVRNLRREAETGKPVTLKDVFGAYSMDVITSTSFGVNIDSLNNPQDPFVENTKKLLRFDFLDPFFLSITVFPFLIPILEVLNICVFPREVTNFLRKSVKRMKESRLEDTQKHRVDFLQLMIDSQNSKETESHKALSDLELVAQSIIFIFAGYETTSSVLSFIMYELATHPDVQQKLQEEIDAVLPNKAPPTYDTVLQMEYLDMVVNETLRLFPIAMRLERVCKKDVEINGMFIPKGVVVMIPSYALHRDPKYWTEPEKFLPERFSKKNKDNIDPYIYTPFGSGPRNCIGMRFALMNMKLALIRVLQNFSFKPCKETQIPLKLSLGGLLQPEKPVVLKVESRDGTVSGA

CYP2D6, sequence (P10635 whole entry): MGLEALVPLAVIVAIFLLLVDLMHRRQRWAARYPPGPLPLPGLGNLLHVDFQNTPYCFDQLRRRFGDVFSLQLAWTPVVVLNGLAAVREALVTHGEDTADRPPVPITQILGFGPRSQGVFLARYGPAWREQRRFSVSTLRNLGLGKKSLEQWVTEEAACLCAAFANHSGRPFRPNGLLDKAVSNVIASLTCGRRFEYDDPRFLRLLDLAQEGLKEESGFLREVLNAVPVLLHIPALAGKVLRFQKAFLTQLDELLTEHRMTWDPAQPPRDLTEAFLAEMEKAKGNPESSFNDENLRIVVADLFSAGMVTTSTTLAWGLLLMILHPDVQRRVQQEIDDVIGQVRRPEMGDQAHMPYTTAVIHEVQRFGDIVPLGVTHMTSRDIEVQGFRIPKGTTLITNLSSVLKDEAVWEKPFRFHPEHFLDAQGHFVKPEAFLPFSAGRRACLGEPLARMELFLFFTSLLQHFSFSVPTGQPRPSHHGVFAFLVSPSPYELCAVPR

CN1CC2c3ccccc3Oc3ccc(Cl)cc3C2C1 (stereo not drawn) [asenapine]
significantly inhibited: inhibition of CYP1A2 [1] | inhibition of CYP2D6 [2] | inhibition of CYP3A4 [3]
